Test results taken from patent US20060069132A1, “Azolecarboxamide herbicides” (priority 2004, published 2006).

How the values were obtained:
velvetleaf = test: Test B pre-/postemergence herbicide test; type: in vivo, Abutilon theophrasti
Summary of the method: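 Plants compared with untreated controls 13–15 days post-treatment and given a visual 0–100 injury score. Applications: preemergence to seeds; postemergence at 1- to 4-leaf (2–18 cm); paddy species flooded, 2-leaf stage. Vehicle non-phytotoxic, surfactant included.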

bermudagrass = test: Test C pre-/postemergence herbicide test; type: in vivo, Cynodon dactylon
Summary of the method: (§1)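 Visual ratings on a 0–100 scale (100 = complete control) made versus untreated controls after 12 to 14 greenhouse days. Test chemicals, formulated in surfactant-containing non-phytotoxic solvent, applied preemergence to planted seeds or postemergence to 1- to 4-leaf plants (2 to 18 cm).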

cocklebur = test: Test C pre-/postemergence herbicide test; type: in vivo, Xanthium strumarium
Excerpt: (§2) Seeds of plant species selected from bermudagrass (Cynodon dactylon (L.) Pers.), Surinam grass (Urochloa decumbens (Staph) R. D. Webster, previously named Brachiaria decumbens Stapf), cocklebur (Xanthium strumarium L.), corn (Zea mays L.), large crabgrass (Digitaria sanguinalis (L.) Scop.), woolly cupgrass (Eriochloa villosa (Thunb.) Kunth), giant foxtail (Setaria faberi Herrm.), goosegrass (Eleusine indica (L.) Gaertn.), johnsongrass (Sorghum halepense (L.) Pers.), kochia (Kochia scoparia (L.) Schrad.), lambsquarters (Chenopodium album L.), morningglory (Ipomoea coccinea L.), eastern black nightshade (Solanum ptycanthum Dunal), yellow nutsedge (Cyperus esculentus L.), pigweed (Amaranthus retroflexus L.), common ragweed (Ambrosia elatior L.), soybean (Glycine max (L.) Merr.), common (oilseed) sunflower (Helianthus annuus L.) and velvetleaf (Abutilon theophrasti Medik.) were planted and treated preemergence with test chemicals formulated in a non-phytotoxic solvent mixture which included a surfactant.
(§3) At the same time, plants selected from these crop and weed species and also winter barley (Hordeum vulgare L.), blackgrass (Alopecurus myosuroides Huds.), canarygrass (Phalaris minor Retz.), chickweed (Stellaria media (L.) Vill.), downy bromegrass (Bromus tectorum L.), green foxtail (Setaria viridis (L.) Beauv.), Italian ryegrass (Lolium multiflorum Lam.), wheat (Triticum aestivum L.), wild oat (Avenafatua L.) and windgrass (Apera spica-venti (L.) Beauv.) were treated with postemergence applications of some of the test chemicals formulated in the same manner. Plants ranged in height from 2 to 18 cm (1- to 4-leaf stage) for postemergence treatments. Plant species in the flooded paddy test consisted of rice (Oryza sativa), smallflower umbrella sedge (Cyperus difformis L.), ducksalad (Heteranthera limosa (Sw.) Willd.) and barnyardgrass (Echinochloa crus-galli (L.) Beauv.) grown to the 2-leaf stage for testing. Treated plants and controls were maintained in a greenhouse for 12 to 14 days, after which time all species were compared to controls and visually evaluated. Plant response ratings, summarized in Table C, are based on a scale of 0 to 100 where 0 is no effect and 100 is complete control. A dash (-) response means no test result.

large crabgrass = test: Test C pre-/postemergence herbicide test; type: in vivo, Digitaria sanguinalis
Summary of the method: as §1

kochia = test: Test C pre-/postemergence herbicide test; type: in vivo, Kochia scoparia
Summary of the method: as §1

yellow nutsedge = test: Test C pre-/postemergence herbicide test; type: in vivo, Cyperus esculentus
Excerpt: as §2, §3

soybean = test: Test C pre-/postemergence herbicide test; type: in vivo, Glycine max; conditions: for Soybean plant response rating: 500 g ai/ha
Excerpt: as §2, §3

ducksalad = test: Test C flooded paddy test; type: in vivo, Heteranthera limosa
[1] = 125 g ai/ha, scale 0 (no effect) to 100 (complete control), visual, 12 to 14 days, preemergence
[2] = 250 g ai/ha, scale 0 to 100 (0 no effect, 100 complete control), visual, 12 to 14 days, preemergence
[3] = Postemergence, 500 g ai/ha, scale 0 to 100
[4] = Postemergence, 125 g ai/ha, scale 0 to 100, 0 no effect, 100 complete control
[5] = Preemergence, 500 g ai/ha, scale 0 to 100, 0 no effect, 100 complete control
[6] = postemergence, 62 g ai/ha, scale 0 to 100
[7] = Postemergence, 250 g ai/ha, scale 0 to 100, 0 no effect, 100 complete control
[8] = 250 g ai/ha, scale 0-100, preemergence
[9] = 500 g ai/ha, scale 0 to 100 (0 no effect, 100 complete control), visual, 12 to 14 days, preemergence
[10] = 62 g ai/ha, preemergence, scale 0 to 100

## C#CCn1nc(C(C)(C)C)cc1C(=O)Nc1cccc(C(=O)NCC)c1 [Compound 50]
velvetleaf; Postemergence, 500 g ai/ha, visual rating after 13 to 15 days, scale 0 (no effect) to 100 (complete control)
  Plant response rating, Velvetleaf: 60
velvetleaf; Preemergence, 500 g ai/ha, scale 0 to 100
  Velvetleaf plant response rating: 50
velvetleaf; postemergence, 125 g ai/ha, visual rating, scale 0 (no effect) to 100 (complete control)
  Velvetleaf plant response rating: 40
velvetleaf; preemergence, 125 g ai/ha, 0 to 100 scale, 0 is no effect, 100 is complete control
  Plant response rating, Velvetleaf: 20
bermudagrass; 62 g ai/ha, preemergence
  Plant response rating (0 = no effect, 100 = complete control), Bermudagrass: 0
bermudagrass; [1]
  Plant response rating, Bermudagrass: 0
bermudagrass; [2]
  Plant response rating, Bermudagrass: 0
bermudagrass; [3]
  Bermudagrass plant response rating: 40
bermudagrass; [4]
  Plant response rating, Bermudagrass: 30
bermudagrass; Postemergence, 250 g ai/ha, scale 0 to 100
  Bermudagrass plant response rating: 30
bermudagrass; [5]
  Bermudagrass plant response rating: 10
bermudagrass; [6]
  Plant response rating, Bermudagrass: 0
cocklebur; 62 g ai/ha, preemergence
  Plant response rating (0 = no effect, 100 = complete control), Cocklebur: 0
cocklebur; [1]
  Plant response rating, Cocklebur: 10
cocklebur; [2]
  Plant response rating, Cocklebur: 80
cocklebur; [3]
  Cocklebur plant response rating: 10
cocklebur; [4]
  Plant response rating, Cocklebur: 10
cocklebur; [7]
  Plant response rating, Cocklebur: 10
cocklebur; [5]
  Cocklebur plant response rating: 80
cocklebur; [6]
  Plant response rating, Cocklebur: 10
Large crabgrass; 62 g ai/ha, preemergence
  Plant response rating (0 = no effect, 100 = complete control), Crabgrass, Large: 0
Large crabgrass; [1]
  Plant response rating, Crabgrass, Large: 0
Large crabgrass; [2]
  Plant response rating, Crabgrass, Large: 20
Large crabgrass; [3]
  Crabgrass, Large plant response rating: 0
Large crabgrass; [4]
  Plant response rating, Crabgrass, Large: 0
Large crabgrass; [7]
  Plant response rating, Crabgrass, Large: 0
Large crabgrass; [5]
  Crabgrass, Large plant response rating: 80
Large crabgrass; [6]
  Plant response rating, Crabgrass, Large: 0
kochia; 62 g ai/ha, preemergence
  Plant response rating (0 = no effect, 100 = complete control), Kochia: 30
kochia; [1]
  Plant response rating, Kochia: 85
kochia; [2]
  Plant response rating, Kochia: 100
kochia; [3]
  Kochia plant response rating: 10
kochia; [4]
  Plant response rating, Kochia: 10
kochia; [7]
  Plant response rating, Kochia: 10
kochia; [5]
  Kochia plant response rating: 100
kochia; [6]
  Plant response rating, Kochia: 0
Yellow nutsedge; 62 g ai/ha, preemergence
  Plant response rating (0 = no effect, 100 = complete control), Nutsedge, Yellow: 0
Yellow nutsedge; [1]
  Plant response rating, Nutsedge, Yellow: 10
Yellow nutsedge; [2]
  Plant response rating, Nutsedge, Yellow: 40
Yellow nutsedge; [5]
  Nutsedge, Yellow plant response rating: 80
soybean; 62 g ai/ha, preemergence
  Plant response rating (0 = no effect, 100 = complete control), Soybean: 0
soybean; [1]
  Plant response rating, Soybean: 0
soybean; [2]
  Plant response rating, Soybean: 0
soybean; Postemergence, scale 0 to 100
  Soybean plant response rating: 100
soybean; [7]
  Plant response rating, Soybean: 100
soybean; Preemergence, scale 0 to 100, 0 no effect, 100 complete control
  Soybean plant response rating: 0
soybean; [6]
  Plant response rating, Soybean: 100

## Cc1nn(C(C)(C)C)nc1C(=O)Nc1cccc(C(=O)N2CC=CC2)c1 [Compound 393]
velvetleaf; 125 g ai/ha, 0 is no effect, 100 is complete control, preemergence
  Plant response rating (0 to 100 scale), Velvetleaf: 50
velvetleaf; 125 g ai/ha, visual rating, scale 0 (no effect) to 100 (complete control), postemergence
  Velvetleaf plant response rating: 40
velvetleaf; Postemergence, 500 g ai/ha, scale 0 (no effect) to 100 (complete control)
  Velvetleaf plant response rating: 60
bermudagrass; 62 g ai/ha, preemergence, scale 0 to 100, 0 no effect, 100 complete control
  Plant response rating, Bermudagrass: 60
bermudagrass; 125 g ai/ha, preemergence
  Plant response rating (0 = no effect, 100 = complete control), Bermudagrass: 100
bermudagrass; [8]
  Plant response rating, Bermudagrass: 100
bermudagrass; [9]
  Plant response rating, Bermudagrass: 100
cocklebur; [10]
  Plant response rating, Cocklebur: 0
cocklebur; 125 g ai/ha, preemergence
  Plant response rating (0 = no effect, 100 = complete control), Cocklebur: 100
cocklebur; [8]
  Plant response rating, Cocklebur: 100
cocklebur; [9]
  Plant response rating, Cocklebur: 100
Large crabgrass; [10]
  Plant response rating, Crabgrass, Large: 95
Large crabgrass; 125 g ai/ha, preemergence
  Plant response rating (0 = no effect, 100 = complete control), Crabgrass, Large: 100
Large crabgrass; [8]
  Plant response rating, Crabgrass, Large: 100
Large crabgrass; [9]
  Plant response rating, Crabgrass, Large: 100
kochia; [10]
  Plant response rating, Kochia: 0
kochia; 125 g ai/ha, preemergence
  Plant response rating (0 = no effect, 100 = complete control), Kochia: 100
kochia; [8]
  Plant response rating, Kochia: 100
kochia; [9]
  Plant response rating, Kochia: 100
Yellow nutsedge; [8]
  Plant response rating, Nutsedge, Yellow: 50
ducksalad; 62 g ai/ha, scale 0 to 100
  Ducksalad plant response rating: 75
ducksalad; 125 g ai/ha, scale 0 to 100 (0 no effect, 100 complete control)
  Ducksalad plant response rating: 75
ducksalad; 250 g ai/ha, scale of 0 to 100, 0 is no effect, 100 is complete control
  Ducksalad plant response rating: 80
ducksalad; 500 g ai/ha, visual rating after 12 to 14 days, scale 0 to 100 (0 no effect, 100 complete control)
  Plant response rating, Ducksalad: 90
